From patent US11000033B2, “Ketone or oxime compound, and herbicide” (NISSAN CHEMICAL CORPORATION, priority 2014, dated 2021)

Experiments:
Format in all cases: in vivo
soybean [1] = assay: Test Example 5: effect on crop by foliage application, plastic box (symbol d); settings: 320 g/ha, 3 weeks after application
Outline: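 Greenhouse culture at 25° C. to 30° C. followed spot-like sowing into sterilized diluvial soil, with seed covered by roughly 1.5 cm of soil.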

Amaranthus retroflexus [2] = assay: Test Example 4: herbicidal effect by soil treatment (symbol N); settings: application herbicide amount 320 g/ha
Outline: (§1)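 Seeds were sown in sterilized diluvial soil, covered with about 1.5 cm of soil, and the soil surface was sprayed with a water-diluted emulsion of the compound at a predetermined rate. Plants grew in a greenhouse at 25° C. to 30° C.; effects were scored visually 3 weeks after application.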

Lolium multiflorum Lam. = assay: Test Example 4: herbicidal effect by soil treatment (symbol K); settings: application herbicide amount 320 g/ha
Outline: as §1

Setaria viridis [3] = assay: Test Example 4: herbicidal effect by soil treatment (symbol G); settings: application herbicide amount 320 g/ha
Outline: as §1

Apera spica-venti = assay: Test Example 4: herbicidal effect by soil treatment (symbol L); settings: application herbicide amount 320 g/ha
Outline: as §1

Chenopodium album [4] = assay: Test Example 4: herbicidal effect by soil treatment (symbol O); settings: application herbicide amount 320 g/ha
Outline: as §1

soybean [5] = assay: Test Example 4: effect on crop by soil treatment (symbol d); settings: application herbicide amount 320 g/ha
Outline: (§2)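 Grown at 25° C. to 30° C. in a greenhouse, the crops came from seed sown spot-wise in sterilized diluvial soil under roughly 1.5 cm of covering soil.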

Avena fatua = assay: Test Example 4: herbicidal effect by soil treatment (symbol I); settings: application herbicide amount 320 g/ha
Outline: as §1

Chenopodium album [6] = assay: Test Example 5: herbicidal effect by foliage application, plastic box (symbol O); settings: 320 g/ha, 3 weeks after application
Outline: (§3)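 Visual herbicidal score, taken three weeks post-application, of seedlings sprayed on the foliage with water-diluted emulsion at a predetermined amount; plants were 14 days old, greenhouse-raised at 25° C. to 30° C.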

Monochoria vaginalis = assay: Test Example 1: herbicidal activity, application before weed generation in submerged conditions (symbol C); settings: application herbicide amount 320 g/ha
Outline: (§4)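 0–5 visual score, 3 wk post-application. Submerged pots, alluvial soil, water 4 cm; seeds sown mixed, rice at 2.5 leaves transplanted. Emulsion diluted to predetermined dose, applied to water surface at sowing. 25–30 °C greenhouse.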

Scirpus juncoides = assay: Test Example 1: herbicidal activity, application before weed generation in submerged conditions (symbol B); settings: application herbicide amount 320 g/ha
Outline: as §4

Setaria viridis [7] = assay: Test Example 5: herbicidal effect by foliage application, plastic box (symbol G); settings: 320 g/ha, 3 weeks after application
Outline: as §3

[8] = tested on: Echinochloa crus-galli var. crus-galli; assay: Test Example 3: herbicidal effect by foliage application, Wagner pot (symbol H); settings: application herbicide amount 320 g/ha
Outline: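 Scoring took place 3 weeks after application, using fixed criteria. Plants had been raised from seed for 14 days at 25 to 30 °C in submerged alluvial soil before a diluted emulsion of the test compound was sprayed uniformly on the leaves.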

beet = assay: Test Example 4: effect on crop by soil treatment (symbol f); settings: application herbicide amount 320 g/ha
Outline: as §2

Abutilon theophrasti = assay: Test Example 5: herbicidal effect by foliage application, plastic box (symbol M); settings: 320 g/ha, 3 weeks after application
Outline: as §3

[9] = tested on: Echinochloa crus-galli var. crus-galli; assay: Test Example 5: herbicidal effect by foliage application, plastic box (symbol H); settings: 320 g/ha, 3 weeks after application
Outline: as §3

Galium spurium = assay: Test Example 5: herbicidal effect by foliage application, plastic box (symbol Q); settings: 320 g/ha, 3 weeks after application
Outline: as §3

wheat = assay: Test Example 4: effect on crop by soil treatment (symbol e); settings: application herbicide amount 320 g/ha
Outline: as §2

Amaranthus retroflexus [10] = assay: Test Example 5: herbicidal effect by foliage application, plastic box (symbol N); settings: 320 g/ha, 3 weeks after application
Outline: as §3

| Structure (SMILES) | d: soybean, effect on crop grade (soybean [1]) | N: Amaranthus retroflexus, herbicidal effect grade (Amaranthus retroflexus [2]) | K: Lolium multiflorum Lam., herbicidal effect grade (Lolium multiflorum Lam.) | G: Setaria viridis, herbicidal effect grade (Setaria viridis [3]) | L: Apera spica-venti, herbicidal effect grade (Apera spica-venti) | O: Chenopodium album, herbicidal effect grade (Chenopodium album [4]) | d: soybean, effect on crop grade (soybean [5]) | I: Avena fatua, herbicidal effect grade (Avena fatua) | O: Chenopodium album, herbicidal effect grade (Chenopodium album [6]) | Herbicidal effect grade, C: Monochoria vaginalis (Monochoria vaginalis) | Herbicidal effect grade, B: Scirpus juncoides (Scirpus juncoides) | G: Setaria viridis, herbicidal effect grade (Setaria viridis [7]) | herbicidal effect on H (Echinochloa crus-galli var. crus-galli), grade 0-5 [8] | f: beet, effect on crop grade (beet) | M: Abutilon theophrasti, herbicidal effect grade (Abutilon theophrasti) | H: Echinochloa crus-galli var. crus-galli, herbicidal effect grade [9] | Q: Galium spurium, herbicidal effect grade (Galium spurium) | e: wheat, effect on crop grade (wheat) | N: Amaranthus retroflexus, herbicidal effect grade (Amaranthus retroflexus [10]) |
| --- | --- | --- | --- | --- | --- | --- | --- | --- | --- | --- | --- | --- | --- | --- | --- | --- | --- | --- | --- |
| CON=C(C)CC1CC(O)=C(c2c(C)cc(C)cc2Br)C1=O (stereo not shown) [6-038] | 4 (Herbicidal ratio of 70% or higher and lower than 90%) | 4 (Herbicidal ratio of 70% or higher and lower than 90%) | 5 (Herbicidal ratio of 90% or more (almost completely withered)) | 4 (Herbicidal ratio of 70% or higher and lower than 90%) | 5 (Herbicidal ratio of 90% or more (almost completely withered)) | 0 (Herbicidal ratio of 5% or lower (almost no effect)) | 1 (Herbicidal ratio of 5% or higher and lower than 20%) | 2 (Herbicidal ratio of 20% or higher and lower than 40%) | 3 (Herbicidal ratio of 40% or higher and lower than 70%) | 3 (Herbicidal ratio of 40% or higher and lower than 70%) | 4 (Herbicidal ratio of 70% or higher and lower than 90%) | 5 (Herbicidal ratio of 90% or more (almost completely withered)) | 5 (Herbicidal ratio of 90% or more (almost completely withered)) | 0 (Herbicidal ratio of 5% or lower (almost no effect)) | 5 (Herbicidal ratio of 90% or more (almost completely withered)) | 5 (Herbicidal ratio of 90% or more (almost completely withered)) | 0 (Herbicidal ratio of 5% or lower (almost no effect)) | 1 (Herbicidal ratio of 5% or higher and lower than 20%) | 5 (Herbicidal ratio of 90% or more (almost completely withered)) |
| CCOC(=O)C(C(=O)C(C)C)C1CC(O)=C(c2c(C)cc(C)cc2C)C1=O (stereo not shown) [2-009] | 0 (Herbicidal ratio of 5% or lower (almost no effect)) | 0 (Herbicidal ratio of 5% or lower (almost no effect)) | 0 (Herbicidal ratio of 5% or lower (almost no effect)) | 0 (Herbicidal ratio of 5% or lower (almost no effect)) | 0 (Herbicidal ratio of 5% or lower (almost no effect)) | 0 (Herbicidal ratio of 5% or lower (almost no effect)) | 0 (Herbicidal ratio of 5% or lower (almost no effect)) | 0 (Herbicidal ratio of 5% or lower (almost no effect)) | 0 (Herbicidal ratio of 5% or lower (almost no effect)) | 0 (Herbicidal ratio of 5% or lower (almost no effect)) | 0 (Herbicidal ratio of 5% or lower (almost no effect)) | 0 (Herbicidal ratio of 5% or lower (almost no effect)) | 3 (Herbicidal ratio of 40% or higher and lower than 70%) | 0 (Herbicidal ratio of 5% or lower (almost no effect)) | 0 (Herbicidal ratio of 5% or lower (almost no effect)) | 3 (Herbicidal ratio of 40% or higher and lower than 70%) | 0 (Herbicidal ratio of 5% or lower (almost no effect)) | 0 (Herbicidal ratio of 5% or lower (almost no effect)) | 0 (Herbicidal ratio of 5% or lower (almost no effect)) |
| CON=C(C)C1CC(O)=C(c2c(C)cc(C)cc2C)C1=O (mixture of isomers) [3-002] | 0 (Herbicidal ratio of 5% or lower (almost no effect)) | 0 (Herbicidal ratio of 5% or lower (almost no effect)) | 0 (Herbicidal ratio of 5% or lower (almost no effect)) | 0 (Herbicidal ratio of 5% or lower (almost no effect)) | 0 (Herbicidal ratio of 5% or lower (almost no effect)) | 0 (Herbicidal ratio of 5% or lower (almost no effect)) | 0 (Herbicidal ratio of 5% or lower (almost no effect)) | 0 (Herbicidal ratio of 5% or lower (almost no effect)) | 0 (Herbicidal ratio of 5% or lower (almost no effect)) | 0 (Herbicidal ratio of 5% or lower (almost no effect)) | 0 (Herbicidal ratio of 5% or lower (almost no effect)) | 2 (Herbicidal ratio of 20% or higher and lower than 40%) | 0 (Herbicidal ratio of 5% or lower (almost no effect)) | 0 (Herbicidal ratio of 5% or lower (almost no effect)) | 0 (Herbicidal ratio of 5% or lower (almost no effect)) | 1 (Herbicidal ratio of 5% or higher and lower than 20%) | 0 (Herbicidal ratio of 5% or lower (almost no effect)) | 0 (Herbicidal ratio of 5% or lower (almost no effect)) | 0 (Herbicidal ratio of 5% or lower (almost no effect)) |
| Cc1cc(C)c(C2=C(O)CC(CC(=O)C3CCCC3)C2=O)c(C)c1 (stereo not shown) [2-028] | 0 (Herbicidal ratio of 5% or lower (almost no effect)) | 0 (Herbicidal ratio of 5% or lower (almost no effect)) | 5 (Herbicidal ratio of 90% or more (almost completely withered)) | 5 (Herbicidal ratio of 90% or more (almost completely withered)) | 2 (Herbicidal ratio of 20% or higher and lower than 40%) | 0 (Herbicidal ratio of 5% or lower (almost no effect)) | 0 (Herbicidal ratio of 5% or lower (almost no effect)) | 0 (Herbicidal ratio of 5% or lower (almost no effect)) | 0 (Herbicidal ratio of 5% or lower (almost no effect)) | 0 (Herbicidal ratio of 5% or lower (almost no effect)) | 0 (Herbicidal ratio of 5% or lower (almost no effect)) | 5 (Herbicidal ratio of 90% or more (almost completely withered)) | 5 (Herbicidal ratio of 90% or more (almost completely withered)) | 0 (Herbicidal ratio of 5% or lower (almost no effect)) | 0 (Herbicidal ratio of 5% or lower (almost no effect)) | 5 (Herbicidal ratio of 90% or more (almost completely withered)) | 0 (Herbicidal ratio of 5% or lower (almost no effect)) | 0 (Herbicidal ratio of 5% or lower (almost no effect)) | 0 (Herbicidal ratio of 5% or lower (almost no effect)) |
